According to publication PMC10384862, “[^212Pb]Pb-eSOMA-01: A Promising Radioligand for Targeted Alpha Therapy of Neuroendocrine Tumors” (Pharmaceuticals, 2023):
Where two headings read alike, the source gives them in different places.

Tests used:
[1] = In vitro stability in PBS; assay type: physicochemical; details: phosphate buffered saline, pH 7.4; ^203Pb-labeled; 24 h; 37 °C; n = 1; read-out: Stability in PBS, intact labeled ligand
Method: The ^203Pb-labeled compounds (~ 2 MBq) or the ^212Pb-labeled compounds (~ 70 kBq) were incubated in 300 µL of phosphate buffered saline (PBS; 0.1 M, pH 7.4) or mouse serum at 37 °C. The stability of the radiolabeled peptides was monitored at 1, 4, and 24 h post-incubation. The samples in PBS were directly analyzed by radio-HPLC without any pretreatment. However, samples of mouse serum were mixed with an equal volume of acetonitrile to precipitate the proteins. The solution was centrifuged twice for 5 min at 13,000 rpm, and the supernatant was analyzed by radio-HPLC using Method 1 for lead-203 and Method 2 for lead-212.

[2] = LogD7.4 by shake-flask method (n-octanol/PBS); assay type: physicochemical; details: ^203Pb-labeled compound; n-octanol/PBS pH 7.4; n = 3
Method: Distribution coefficients (LogD7.4) were determined by the shake-flask method. A sample containing the ^203Pb-labeled compound (~1 MBq) was added to a vial containing PBS (600 µL, pH 7.4) and n-octanol (600 µL). The vial was vortexed vigorously and then centrifuged at 10,000 rpm for 10 min for phase separation. Samples (100 µL) of the n-octanol and aqueous phases were taken and measured by a gamma counter. The LogD7.4 value was calculated by using the equation: LogD7.4 = log [(counts in the n-octanol phase)/(counts in the aqueous phase)]. Measurements were performed in triplicate.

[3] = tested on: AR42J tumors; details: in vivo, cited from earlier work
[4] = SPECT/CT imaging with 203Pb-labeled ligands; assay type: in vivo; details: mouse; for tissue uptake per volume / tissue uptake per volume at 1 h / tissue uptake per volume at 24 h: male, Balb/c nu/nu, tumor, iv, 0.5 nmol, total radioactivity, read-out: Tumor uptake from SPECT images; for tissue uptake per volume: 1, 4 and 24 h after administration, n = 4; for tissue uptake per volume at 1 h: 1 h post-injection; for tissue uptake per volume at 24 h: 24 h post-injection; for half-life: kidneys, intravenous, ^203Pb-labeled, H69 tumor-bearing mice, read-out: Renal clearance half-life (converted)
Method: SPECT/CT imaging was performed in H69-xenografted Balb/c nu/nu mice at 1, 4, and 24 h after the administration of [^203Pb]Pb-eSOMA-01 or [^203Pb]Pb-eSOMA-02. Tumors were visible by SPECT/CT for both radioligands (Figure 3A,B). […] They increased over time for [^203Pb]Pb-eSOMA-01 (0.5 ± 0.03 at 4 h to 0.70 ± 0.11 at 24 h), while they remained nearly constant for [^203Pb]Pb-eSOMA-02 (0.30 ± 0.09 at 4 h and 0.4 ± 0.03 at 24 h).
(§1) Six-week-old male Balb/c nu/nu-specific and opportunistic pathogen-tree (SOPF) mice (Janvier Labs, Le Genest-Saint-Isle, France) were housed in individually ventilated cages, with four mice per cage. Upon arrival, the mice were acclimated for 1 week with access to food and water ad libitum. Mice were subcutaneously inoculated on the right shoulder with NCI-H69 cells (5 × 10^6 cells suspended in 100 μL of 1/3 Matrigel (Corning Inc.; Corning, NY, USA) and 2/3 Hank’s balanced salt solution (Gibco; Paisley, UK). NCI-H69 xenografts were allowed to grow for 3 weeks. Tumor sizes were 391 ± 173 mm^3 at the start of the studies.
Mice (n = 4 per compound) were intravenously injected in the tail vein with 100 μL of [^203Pb]Pb-eSOMA-01 (12.31 ± 1.44 MBq, 0.5 nmol) or [^203Pb]Pb-eSOMA-02 (13.06 ± 1.44 MBq, 0.5 nmol) containing Kolliphor HS 15 (Merck; Haarlerbergweg, The Netherlands) in PBS (0.06 mg/mL). At 1, 4, and 24 h post-injection (p.i.), mice were imaged in a prone position on a heated bed under 2% isoflurane/O2 anesthesia in a dedicated small-animal PET/SPECT/CT VECTOR5 scanner (MILabs B.V.; Utrecht, The Netherlands) with a high-sensitivity pinhole collimator (HE-GP-M, 1.6 mm pinholes). Whole-body SPECT images were acquired over one frame of 20 min (for 1 and 4 h time points) and two frames of 20 min (for 24 h time points) using a spiral scan in normal scan mode, in list-mode acquisition. This was followed by a whole-body normal CT scan (angle step 0.75 degrees, 50 kV tube voltage, 0.21 mA tube current). Reconstruction of the SPECT images was performed using the similarity-regulated SROSEM method (MILabs Rec 11.00 software), performing five iterations with a voxel size of 0.4 mm, using 72 keV ± 30% and 280 keV ± 8% energy windows for lead-203. Reconstructed volumes of SPECT scans were post-filtered with an isotropic three-dimensional Gaussian filter of 1 mm full width at half-maximum. Image processing and analyses of the reconstructed data were performed using the PMOD image analysis software version 3.9 (PMOD Technologies; Zurich, Switzerland) to calculate the percentage of injected dose per mL (% ID/mL). An Eppendorf tube filled with a solution of lead-203 of known activity was measured to determine the calibration factor.

[5] = Ex vivo biodistribution with lead-203; assay type: in vivo, mouse; details: mouse, 24 h post-injection
Method: as §1
(§2) To determine the biodistribution of the compounds after imaging (1, 4, and 24 h p.i.), blood was collected via retro-orbital puncture under isoflurane/O2 anesthesia, after which the mice were sacrificed via cervical dislocation. The tumor and organs of interest (heart, lungs, liver, spleen, stomach, large intestine, small intestine, pancreas, kidneys, muscle, skin, and bone) were excised, washed in PBS, blotted dry, and collected into tubes. The blood, tumor, and relevant organs were weighed and measured with a gamma counter. The percentage of injected dose per gram (% ID/g) was determined for each tissue sample and corrected for both the injected volume and the % ID present at the injection site (the tail).

[6] = tested on: H69 tumor bearing mice; experiment: Ex vivo biodistribution with lead-203; assay type: in vivo, mouse; details: after 4 h (so in the source); p < 0.05
Method: as §1, §2

[7] = blood, n = 4, read-out: Blood uptake
[8] = bone, n = 4, read-out: Bones uptake
[9] = heart, n = 4, read-out: Heart uptake
[10] = kidneys, n = 4, read-out: Kidneys uptake
[11] = large intestine, n = 4, read-out: Large Intestine uptake
[12] = liver, n = 4, read-out: Liver uptake
[13] = lungs, n = 4, read-out: Lungs uptake
[14] = muscle, n = 4, read-out: Muscle uptake
[15] = non-target organs other than kidneys, intravenous, organs other than kidneys, read-out: Uptakes in all the other non-target organs
[16] = pancreas, n = 4, read-out: Pancreas uptake
[17] = skin, n = 4, read-out: Skin uptake
[18] = small intestine, n = 4, read-out: Small Intestine uptake
[19] = spleen, n = 4, read-out: Spleen uptake
[20] = stomach, n = 4, read-out: Stomach uptake
[21] = tumor, n = 4, read-out: Tumor uptake

Compound	remaining at 24 h [1] [%]	logD [2]	tissue uptake per volume [4] [%ID/mL]	tissue uptake per volume at 1 h [4] [%ID/mL]	tissue uptake per volume at 24 h [4] [%ID/mL]	half-life [4] [h]	tissue uptake at 24 h [5, 7] [%ID/g]	tissue uptake at 24 h [5, 8] [%ID/g]	tissue uptake at 24 h [5, 9] [%ID/g]	tissue uptake at 24 h [5, 10] [%ID/g]	tissue uptake at 24 h [5, 11] [%ID/g]	tissue uptake at 24 h [5, 12] [%ID/g]	tissue uptake at 24 h [5, 13] [%ID/g]	tissue uptake at 24 h [5, 14] [%ID/g]	tissue uptake at 24 h [5, 15] [%ID/g]	tissue uptake at 24 h [5, 16] [%ID/g]	tissue uptake at 24 h [5, 17] [%ID/g]	tissue uptake at 24 h [5, 18] [%ID/g]	tissue uptake at 24 h [5, 19] [%ID/g]	tissue uptake at 24 h [5, 20] [%ID/g]	further results
C[C@@H](O)[C@H](NC(=O)[C@@H]1CSSC[C@H](NC(=O)[C@@H](Cc2ccccc2)NC(=O)CN2CCN(CC(N)=O)CCN(CC(N)=O)CCN(CC(N)=O)CC2)C(=O)N[C@@H](Cc2ccc(O)cc2)C(=O)N[C@H](Cc2c[nH]c3ccccc23)C(=O)N[C@@H](CCCCN)C(=O)N[C@@H]([C@@H](C)O)C(=O)N1)C(=O)O [[^203Pb]Pb-DOTAM-TATE, metal not drawn, reference compound]	> 97	-1.41 ± 0.01	–	–	–	–	–	–	–	–	–	–	–	–	–	–	–	–	–	–	Tumor uptake ([3]; 1 h): 13 % ID/g; Uptake in kidneys ([3]; 24 h): ~ 13 % ID/g
C[C@@H](O)[C@H](NC(=O)[C@@H]1CSSC[C@H](NC(=O)[C@@H](Cc2ccccc2)NC(=O)[C@H]2CC[C@H](CNC(=O)CN3CCN(CC(N)=O)CCN(CC(N)=O)CCN(CC(N)=O)CC3)CC2)C(=O)N[C@@H](Cc2ccc(O)cc2)C(=O)N[C@H](Cc2c[nH]c3ccccc23)C(=O)N[C@@H](CCCCN)C(=O)N[C@@H]([C@@H](C)O)C(=O)N1)C(=O)O [[^203Pb]Pb-eSOMA-01, metal not drawn]	> 97	-1.99 ± 0.03	3 to 4	~4	2 to 3	14.7 ± 2.4	0.05 ± 0.02	0.27 ± 0.02	0.05 ± 0.01	7.44 ± 1.17	0.34 ± 0.08	0.86 ± 0.1	0.36 ± 0.05	0.18 ± 0.03	< 1	0.12 ± 0.02	0.03 ± 0.02	0.12 ± 0.02	0.22 ± 0.03	0.75 ± 0.34	tissue uptake at 24 h [5, 21]: 2.89 ± 0.84 %ID/g
C[C@@H](O)[C@H](NC(=O)[C@@H]1CSSC[C@H](NC(=O)[C@@H](Cc2ccccc2)NC(=O)CN2CCC(NC(=O)CN3CCN(CC(N)=O)CCN(CC(N)=O)CCN(CC(N)=O)CC3)CC2)C(=O)N[C@@H](Cc2ccc(O)cc2)C(=O)N[C@H](Cc2c[nH]c3ccccc23)C(=O)N[C@@H](CCCCN)C(=O)N[C@@H]([C@@H](C)O)C(=O)N1)C(=O)O [[^203Pb]Pb-eSOMA-02, metal not drawn]	> 97	-1.88 ± 0.03	3 to 4	~4	2 to 3	24.2 ± 4.5	0.17 ± 0.11	0.67 ± 0.04	0.09 ± 0.02	12.6 ± 0.02	0.41 ± 0.06	1.11 ± 0.05	0.53 ± 0.04	0.04 ± 0.07	< 1	0.83 ± 0.96	0.43 ± 0.09	0.24 ± 0.03	0.61 ± 0.15	0.67 ± 0.19	More uptake in the kidneys compared to [203Pb]Pb-eSOMA-01 [6]: around 41%; tissue uptake at 24 h [5, 21]: 2.54 ± 0.36 %ID/g
